Laboratory results taken from the supplement of paper PMC10307832.

Key:
Test in all cases: relative viability (nuclei count vs DMSO), 5 days (fraction); higher = more cells survive
[1] = system: A-427
In short: (§1)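 Cells from lung cancer lines were seeded into 1536-well plates and, one day later, dosed by pin tool. Treatments were either a single drug or a fixed dose of an anchor drug with five library-drug doses (not always all listed) in √10 steps. After 5 days, nuclei were stained in a one-step fixation (final 0.05% Triton X-100, 1% formaldehyde, 1 ug/ml Hoechst) and counted on 4× images, and relative viability is the treated-to-vehicle nuclei ratio, as the median of duplicate plates.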

[2] = system: HCC-15
In short: as §1

[3] = system: HCC-78
In short: as §1

[4] = system: HOP-62
In short: as §1

[5] = system: LC-2-ad
In short: as §1

[6] = system: LOU-NH91
In short: as §1

[7] = system: LXF-289
In short: as §1

[8] = system: NCI-H1734
In short: as §1

[9] = system: NCI-H1755
In short: as §1

[10] = system: NCI-H1792
In short: as §1

[11] = system: NCI-H1915
In short: as §1

[12] = system: NCI-H1975
In short: as §1

[13] = system: NCI-H2126
In short: as §1

[14] = system: NCI-H2342
In short: as §1

[15] = system: NCI-H2347
In short: as §1

[16] = system: NCI-H358
In short: as §1

[17] = system: NCI-H460
In short: as §1

[18] = system: NCI-H647
In short: as §1

[19] = system: PC-3 [JPC-3]
In short: as §1

[20] = system: RERF-LC-KJ
In short: as §1

[21] = system: SK-LU-1
In short: as §1

[22] = system: SW 1573
In short: as §1

`NC(=O)Nc1cc(-c2cccc(F)c2)sc1C(=O)N[C@H]1CCCNC1` [AZD7762] + Nc1ncn([C@H]2C[C@H](O)[C@@H](CO)O2)c(=O)n1 [Decitabine] (partner 2 µM) was tested, and the relative viability ([1]; first compound 0.01 µM) was 0.582, the relative viability ([1]; first compound 0.03162 µM) was 0.648 and the relative viability ([1]; first compound 0.1 µM) was 0.633. It also gave a relative viability ([1]; first compound 0.3162 µM) of 0.554, a relative viability ([1]; first compound 1 µM) of 0.314 and a relative viability ([2]; first compound 0.01 µM) of 0.565. For the same compound, the relative viability ([2]; first compound 0.03162 µM) was 0.587, the relative viability ([2]; first compound 0.1 µM) was 0.622 and the relative viability ([2]; first compound 0.3162 µM) was 0.553. The relative viability ([2]; first compound 1 µM) was 0.589, the relative viability ([3]; first compound 0.01 µM) was 0.707 and the relative viability ([3]; first compound 0.03162 µM) was 0.901. The relative viability ([3]; first compound 0.1 µM) was 0.824, the relative viability ([3]; first compound 0.3162 µM) was 0.904 and the relative viability ([3]; first compound 1 µM) was 0.622. The relative viability ([4]; first compound 0.01 µM) was 0.216, the relative viability ([4]; first compound 0.03162 µM) was 0.23 and the relative viability ([4]; first compound 0.1 µM) was 0.248. The relative viability ([4]; first compound 0.3162 µM) was 0.284, the relative viability ([4]; first compound 1 µM) was 0.299 and the relative viability ([5]; first compound 0.01 µM) was 0.853. The relative viability ([5]; first compound 0.03162 µM) was 0.901, the relative viability ([5]; first compound 0.1 µM) was 0.796 and the relative viability ([5]; first compound 0.3162 µM) was 0.649. For the same compound, the relative viability ([5]; first compound 1 µM) was 0.682, the relative viability ([6]; first compound 0.01 µM) was 0.823 and the relative viability ([6]; first compound 0.03162 µM) was 0.796. The relative viability ([6]; first compound 0.1 µM) was 0.816, the relative viability ([6]; first compound 0.3162 µM) was 0.761 and the relative viability ([6]; first compound 1 µM) was 0.673. The relative viability ([7]; first compound 0.01 µM) was 0.322, the relative viability ([7]; first compound 0.03162 µM) was 0.476 and the relative viability ([7]; first compound 0.1 µM) was 0.486. For the same compound, the relative viability ([7]; first compound 0.3162 µM) was 0.619, the relative viability ([7]; first compound 1 µM) was 0.55 and the relative viability ([8]; first compound 0.01 µM) was 0.567. For the same compound, the relative viability ([8]; first compound 0.03162 µM) was 0.581, the relative viability ([8]; first compound 0.1 µM) was 0.51 and the relative viability ([8]; first compound 0.3162 µM) was 0.517. It also gave a relative viability ([8]; first compound 1 µM) of 0.39, a relative viability ([9]; first compound 0.01 µM) of 0.76 and a relative viability ([9]; first compound 0.03162 µM) of 0.839. The relative viability ([9]; first compound 0.1 µM) was 0.847, the relative viability ([9]; first compound 0.3162 µM) was 0.922 and the relative viability ([9]; first compound 1 µM) was 0.703. It also gave a relative viability ([10]; first compound 0.01 µM) of 0.507, a relative viability ([10]; first compound 0.03162 µM) of 0.579 and a relative viability ([10]; first compound 0.1 µM) of 0.662. For the same compound, the relative viability ([10]; first compound 0.3162 µM) was 0.582, the relative viability ([10]; first compound 1 µM) was 0.68 and the relative viability ([11]; first compound 0.01 µM) was 0.276. The relative viability ([11]; first compound 0.03162 µM) was 0.297, the relative viability ([11]; first compound 0.1 µM) was 0.294 and the relative viability ([11]; first compound 0.3162 µM) was 0.337. It also gave a relative viability ([11]; first compound 1 µM) of 0.326, a relative viability ([12]; first compound 0.01 µM) of 0.427 and a relative viability ([12]; first compound 0.03162 µM) of 0.391. For the same compound, the relative viability ([12]; first compound 0.1 µM) was 0.439, the relative viability ([12]; first compound 0.3162 µM) was 0.396 and the relative viability ([12]; first compound 1 µM) was 0.266. The relative viability ([13]; first compound 0.01 µM) was 0.562, the relative viability ([13]; first compound 0.03162 µM) was 0.628 and the relative viability ([13]; first compound 0.1 µM) was 0.656. For the same compound, the relative viability ([13]; first compound 0.3162 µM) was 0.789, the relative viability ([13]; first compound 1 µM) was 0.741 and the relative viability ([14]; first compound 0.01 µM) was 0.68. For the same compound, the relative viability ([14]; first compound 0.03162 µM) was 0.731, the relative viability ([14]; first compound 0.1 µM) was 0.805 and the relative viability ([14]; first compound 0.3162 µM) was 0.821. The relative viability ([14]; first compound 1 µM) was 0.854, the relative viability ([15]; first compound 0.01 µM) was 0.558 and the relative viability ([15]; first compound 0.03162 µM) was 0.656. The relative viability ([15]; first compound 0.1 µM) was 0.725, the relative viability ([15]; first compound 0.3162 µM) was 0.79 and the relative viability ([15]; first compound 1 µM) was 0.752. The relative viability ([16]; first compound 0.01 µM) was 0.229, the relative viability ([16]; first compound 0.03162 µM) was 0.311 and the relative viability ([16]; first compound 0.1 µM) was 0.38. It also gave a relative viability ([16]; first compound 0.3162 µM) of 0.343, a relative viability ([16]; first compound 1 µM) of 0.224 and a relative viability ([17]; first compound 0.01 µM) of 0.657. It also gave a relative viability ([17]; first compound 0.03162 µM) of 0.488, a relative viability ([17]; first compound 0.1 µM) of 0.451 and a relative viability ([17]; first compound 0.3162 µM) of 0.26. The relative viability ([17]; first compound 1 µM) was 0.0798, the relative viability ([18]; first compound 0.01 µM) was 0.475 and the relative viability ([18]; first compound 0.03162 µM) was 0.501. For the same compound, the relative viability ([18]; first compound 0.1 µM) was 0.441, the relative viability ([18]; first compound 0.3162 µM) was 0.356 and the relative viability ([18]; first compound 1 µM) was 0.156. The relative viability ([19]; first compound 0.01 µM) was 0.892, the relative viability ([19]; first compound 0.03162 µM) was 0.869 and the relative viability ([19]; first compound 0.1 µM) was 0.949. It also gave a relative viability ([19]; first compound 0.3162 µM) of 0.848, a relative viability ([19]; first compound 1 µM) of 0.592 and a relative viability ([20]; first compound 0.01 µM) of 0.743. For the same compound, the relative viability ([20]; first compound 0.03162 µM) was 0.793, the relative viability ([20]; first compound 0.1 µM) was 0.962 and the relative viability ([20]; first compound 0.3162 µM) was 0.845. For the same compound, the relative viability ([20]; first compound 1 µM) was 0.611, the relative viability ([21]; first compound 0.01 µM) was 0.609 and the relative viability ([21]; first compound 0.03162 µM) was 0.782. It also gave a relative viability ([21]; first compound 0.1 µM) of 0.49, a relative viability ([21]; first compound 0.3162 µM) of 0.281 and a relative viability ([21]; first compound 1 µM) of 0.204. For the same compound, the relative viability ([22]; first compound 0.01 µM) was 0.565, the relative viability ([22]; first compound 0.03162 µM) was 0.523 and the relative viability ([22]; first compound 0.1 µM) was 0.482. The relative viability ([22]; first compound 0.3162 µM) was 0.324 and the relative viability ([22]; first compound 1 µM) was 0.172.
